Data reported in the supplement of paper PMC10307832.

Columns and labels:
Experiment in all cases: relative viability (nuclei count vs DMSO), 5 days (fraction); higher = more cells survive
Vemurafenib + Pictilisib = compound: CCCS(=O)(=O)Nc1ccc(F)c(C(=O)c2c[nH]c3ncc(-c4ccc(Cl)cc4)cc23)c1F [Vemurafenib] + CS(=O)(=O)N1CCN(Cc2cc3nc(-c4cccc5[nH]ncc45)nc(N4CCOCC4)c3s2)CC1 [Pictilisib] (partner 1 µM)
How it was run: (§1)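 For relative viability, nuclei counts in treated wells were divided by those in vehicle wells. Lung cancer cell lines had been pin-tool dosed in 1536-well plates the day after seeding and cultured for 5 days, then fixed and stained in one step (final 0.05% Triton X-100, 1% formaldehyde, 1 ug/ml Hoechst) and imaged at 4×. Doses were one drug alone or a fixed anchor-drug dose plus five library-drug doses (not always all listed) in √10 steps, and values are duplicate-plate medians.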

OSI-027 + Trametinib = compound: COc1cccc2cc(-c3nc([C@H]4CC[C@H](C(=O)O)CC4)n4ncnc(N)c34)[nH]c12 [OSI-027] + CC(=O)Nc1cccc(-n2c(=O)n(C3CC3)c(=O)c3c(Nc4ccc(I)cc4F)n(C)c(=O)c(C)c32)c1 [Trametinib] (partner 0.02 µM)
How it was run: as §1

OSI-027 + Crizotinib = compound: COc1cccc2cc(-c3nc([C@H]4CC[C@H](C(=O)O)CC4)n4ncnc(N)c34)[nH]c12 [OSI-027] + C[C@@H](Oc1cc(-c2cnn(C3CCNCC3)c2)cnc1N)c1c(Cl)ccc(F)c1Cl [Crizotinib] (partner 1 µM)
How it was run: as §1

Alpelisib + OSI-027 = compound: Cc1nc(NC(=O)N2CCC[C@H]2C(N)=O)sc1-c1ccnc(C(C)(C)C(F)(F)F)c1 [Alpelisib] + COc1cccc2cc(-c3nc([C@H]4CC[C@H](C(=O)O)CC4)n4ncnc(N)c34)[nH]c12 [OSI-027] (partner 0.5 µM)
How it was run: as §1

Cell Line | relative viability (Vemurafenib + Pictilisib; first compound 0.03162 µM) | relative viability (Vemurafenib + Pictilisib; first compound 0.1 µM) | relative viability (Vemurafenib + Pictilisib; first compound 0.3162 µM) | relative viability (Vemurafenib + Pictilisib; first compound 1 µM) | relative viability (OSI-027 + Trametinib; first compound 0.01 µM) | relative viability (OSI-027 + Trametinib; first compound 0.03162 µM) | relative viability (OSI-027 + Trametinib; first compound 0.1 µM) | relative viability (OSI-027 + Trametinib; first compound 0.3162 µM) | relative viability (OSI-027 + Trametinib; first compound 1 µM) | relative viability (OSI-027 + Crizotinib; first compound 0.01 µM) | relative viability (OSI-027 + Crizotinib; first compound 0.03162 µM) | relative viability (OSI-027 + Crizotinib; first compound 0.1 µM) | relative viability (OSI-027 + Crizotinib; first compound 0.3162 µM) | relative viability (OSI-027 + Crizotinib; first compound 1 µM) | relative viability (Alpelisib + OSI-027; first compound 0.04 µM) | relative viability (Alpelisib + OSI-027; first compound 0.1265 µM) | relative viability (Alpelisib + OSI-027; first compound 0.4 µM) | relative viability (Alpelisib + OSI-027; first compound 1.265 µM) | relative viability (Alpelisib + OSI-027; first compound 4 µM)
NCI-H23 | 0.531 | 0.493 | 0.476 | 0.452 | 0.313 | 0.42 | 0.349 | 0.26 | 0.28 | 0.482 | 0.416 | 0.535 | 0.525 | 0.293 | 0.672 | 0.485 | 0.521 | 0.363 | 0.314
NCI-H322M | 0.552 | – | 0.719 | 0.572 | 0.509 | 0.543 | 0.496 | 0.482 | 0.455 | 0.86 | 0.929 | 0.951 | 0.947 | 0.775 | 0.56 | 0.527 | 0.515 | 0.36 | 0.41
NCI-H358 | 0.291 | – | 0.417 | 0.299 | 0.114 | 0.129 | 0.123 | 0.112 | 0.117 | 0.566 | 0.509 | 0.552 | 0.704 | 0.348 | 0.558 | 0.767 | 0.572 | 0.292 | 0.121
NCI-H441 | 0.44 | 0.402 | 0.544 | 0.35 | 0.346 | 0.434 | 0.486 | 0.362 | 0.253 | 0.679 | 0.613 | 0.633 | 0.604 | 0.338 | 0.656 | 0.64 | 0.643 | 0.296 | 0.305
NCI-H460 | 0.332 | 0.438 | 0.271 | 0.296 | 0.152 | 0.13 | 0.145 | 0.129 | 0.12 | 0.888 | 0.714 | 1.06 | 0.759 | 0.184 | 0.545 | 0.623 | 0.534 | 0.242 | 0.137
NCI-H520 | 0.283 | 0.369 | 0.372 | 0.268 | 0.644 | 0.606 | 0.563 | 0.379 | 0.188 | 0.813 | 0.848 | 0.876 | 0.424 | 0.286 | 0.21 | 0.239 | 0.229 | 0.188 | 0.189
NCI-H596 | 0.352 | 0.356 | 0.429 | 0.388 | 0.738 | 0.792 | 0.914 | 0.758 | 0.538 | 0.946 | 1.07 | 1.05 | 0.838 | 0.734 | 0.629 | 0.571 | 0.589 | 0.457 | 0.357
NCI-H647 | 0.343 | 0.39 | – | 0.434 | 0.367 | 0.395 | 0.438 | 0.385 | 0.236 | 1.12 | 1.2 | 1.07 | 0.701 | 0.456 | 0.614 | 0.576 | 0.626 | 0.392 | 0.471
NCI-H650 | 0.818 | 0.834 | 0.534 | 0.771 | 0.915 | 1.11 | 0.909 | 0.851 | 0.454 | 0.733 | 0.583 | 0.582 | 0.469 | 0.336 | 0.552 | 0.435 | 0.488 | 0.357 | 0.325
NCI-H661 | 0.347 | 0.351 | 0.292 | 0.433 | 0.545 | 0.479 | 0.468 | 0.432 | 0.307 | 0.998 | 1.1 | 1.14 | 1.15 | 0.645 | 0.628 | 0.668 | 0.709 | 0.523 | 0.493
NCI-H727 | 0.353 | 0.32 | 0.568 | 0.315 | 0.346 | 0.412 | 0.349 | 0.387 | 0.395 | 0.626 | 0.862 | 0.798 | 0.655 | 0.517 | 0.753 | 0.397 | 0.522 | 0.359 | 0.391
NCI-H838 | 0.401 | 0.445 | – | 0.626 | 0.455 | 0.532 | 0.436 | 0.317 | 0.206 | 0.803 | 0.696 | 0.599 | 0.447 | 0.367 | 0.386 | 0.366 | 0.317 | 0.244 | 0.211
NCI-H1355 | 0.419 | 0.426 | 0.377 | 0.395 | 0.401 | 0.458 | 0.341 | 0.3 | 0.252 | 0.969 | 0.937 | 0.998 | 0.847 | 0.276 | 0.406 | 0.325 | 0.311 | 0.285 | 0.235
NCI-H1437 | 0.445 | 0.376 | 0.512 | 0.333 | 0.43 | 0.406 | 0.493 | 0.39 | 0.248 | 0.987 | 0.966 | 0.995 | 0.944 | 0.441 | 0.796 | 0.842 | 0.754 | 0.527 | 0.319
